Columns and labels:
[1] = target: T1, mouse Siglec-2-Fc-Avi (CD22) (Mus musculus, UniProt P35329); experiment: SPR binding affinity to mouse CD22; details: steady-state analysis
T1 construct: made in house
T1 sequence (P35329 22-708 limits assumed): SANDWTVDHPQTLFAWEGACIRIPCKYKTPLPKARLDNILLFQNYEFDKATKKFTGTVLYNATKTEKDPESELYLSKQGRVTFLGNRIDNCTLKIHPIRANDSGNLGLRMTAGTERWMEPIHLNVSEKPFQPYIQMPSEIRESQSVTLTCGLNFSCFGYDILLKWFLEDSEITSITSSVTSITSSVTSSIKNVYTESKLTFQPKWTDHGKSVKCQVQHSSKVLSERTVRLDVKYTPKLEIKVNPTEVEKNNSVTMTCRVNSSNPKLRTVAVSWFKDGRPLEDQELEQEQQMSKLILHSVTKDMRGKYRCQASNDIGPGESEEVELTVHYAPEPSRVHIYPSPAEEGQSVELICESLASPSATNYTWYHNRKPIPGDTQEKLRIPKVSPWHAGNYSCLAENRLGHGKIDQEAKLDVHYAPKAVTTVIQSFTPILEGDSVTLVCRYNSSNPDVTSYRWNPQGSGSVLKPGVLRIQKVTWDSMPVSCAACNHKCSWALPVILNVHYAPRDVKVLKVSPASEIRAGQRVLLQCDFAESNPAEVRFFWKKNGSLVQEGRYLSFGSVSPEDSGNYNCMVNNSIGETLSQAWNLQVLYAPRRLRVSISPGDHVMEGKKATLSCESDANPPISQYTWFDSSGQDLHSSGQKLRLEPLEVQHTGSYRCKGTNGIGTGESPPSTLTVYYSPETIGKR
Procedure, shortened: (§1)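 SialoExo pretreatment, 4 h 37° C.; biotinylated CD22 on SA chip, Biacore 8K. Buffer 10 mM HEPES, 150 mM NaCl, 0.05% Tween-20, pH 7.5, 1% DMSO. Dissociation 120 s; solvent-corrected; steady-state KD.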

[2] = target: T2, human Siglec-2/CD22 protein (Homo sapiens, UniProt P20273); experiment: SPR binding affinity to human CD22; details: steady-state analysis
T2 construct: purchased Acro Biosystems SI2-H82E3
T2 sequence (P20273 20-847): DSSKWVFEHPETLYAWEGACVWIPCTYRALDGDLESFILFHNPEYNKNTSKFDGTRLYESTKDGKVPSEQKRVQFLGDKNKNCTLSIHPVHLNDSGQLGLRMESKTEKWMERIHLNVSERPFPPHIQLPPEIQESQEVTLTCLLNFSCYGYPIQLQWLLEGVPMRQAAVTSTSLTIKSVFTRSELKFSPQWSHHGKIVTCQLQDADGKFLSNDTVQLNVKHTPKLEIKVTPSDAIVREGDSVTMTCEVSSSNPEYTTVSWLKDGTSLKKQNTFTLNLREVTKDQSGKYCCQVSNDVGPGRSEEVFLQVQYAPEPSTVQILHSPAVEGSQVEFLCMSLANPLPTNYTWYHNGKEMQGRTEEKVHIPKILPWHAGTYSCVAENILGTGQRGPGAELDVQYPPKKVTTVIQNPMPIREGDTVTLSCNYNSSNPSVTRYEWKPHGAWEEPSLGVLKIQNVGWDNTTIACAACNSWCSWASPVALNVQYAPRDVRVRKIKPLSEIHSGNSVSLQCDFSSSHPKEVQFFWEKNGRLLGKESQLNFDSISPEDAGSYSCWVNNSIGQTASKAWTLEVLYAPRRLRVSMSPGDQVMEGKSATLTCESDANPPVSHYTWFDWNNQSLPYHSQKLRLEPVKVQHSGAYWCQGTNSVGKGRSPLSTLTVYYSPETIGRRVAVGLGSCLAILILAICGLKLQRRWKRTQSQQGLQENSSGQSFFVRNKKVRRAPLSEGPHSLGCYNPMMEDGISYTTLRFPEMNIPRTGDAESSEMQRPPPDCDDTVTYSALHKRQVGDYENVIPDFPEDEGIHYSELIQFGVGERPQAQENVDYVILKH
Procedure, shortened: as §1

cynomolgus Siglec-2/CD22 = cynomolgus Siglec-2/CD22 (Macaca fascicularis, UniProt A0A2K5WCZ6); experiment: biochemical; assay type: binding; details: SPR, steady-state analysis; read-out: Affinity cyno CD22
Procedure, shortened: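 SPR with desialylated (SialoExo, 4 h, 37° C.) cynomolgus CD22 amine-coupled to a CM5 chip. Running buffer 10 mM HEPES, 150 mM NaCl, 0.05% Tween-20, pH 7.5, 1% DMSO, with solvent correction; 120 s dissociation. Affinities from steady-state analysis.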

Sequence of cynomolgus Siglec-2/CD22 (A0A2K5WCZ6 entry or part of it): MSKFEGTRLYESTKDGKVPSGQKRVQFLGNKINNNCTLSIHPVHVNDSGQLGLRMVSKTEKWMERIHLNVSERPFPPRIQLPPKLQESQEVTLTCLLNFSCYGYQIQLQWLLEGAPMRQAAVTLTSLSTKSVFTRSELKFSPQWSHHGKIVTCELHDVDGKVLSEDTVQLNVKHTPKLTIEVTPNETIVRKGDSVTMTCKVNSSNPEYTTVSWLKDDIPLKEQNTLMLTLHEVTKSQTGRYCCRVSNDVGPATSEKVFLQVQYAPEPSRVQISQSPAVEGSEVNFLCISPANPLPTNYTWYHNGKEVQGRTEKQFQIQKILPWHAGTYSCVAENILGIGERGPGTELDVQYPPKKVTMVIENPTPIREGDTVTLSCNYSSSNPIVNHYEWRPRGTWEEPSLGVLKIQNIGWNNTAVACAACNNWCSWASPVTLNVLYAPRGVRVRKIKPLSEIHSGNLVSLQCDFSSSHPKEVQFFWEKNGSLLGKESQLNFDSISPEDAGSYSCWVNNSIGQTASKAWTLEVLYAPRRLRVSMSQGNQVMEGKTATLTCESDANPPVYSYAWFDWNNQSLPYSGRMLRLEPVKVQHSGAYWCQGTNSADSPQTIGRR

Row | SMILES | Kd [1] [µM] | Kd [2] [nM] | Kd (cynomolgus Siglec-2/CD22) [nM]
1 | C#CCOCCOCCO[C@]1(C(=O)O)C[C@H](O)[C@@H](NC(=O)CO)[C@H]([C@H](O)[C@H](O)CNC(=O)c2ccc(Cl)cc2)O1 [Compound 30, (2R,4S,5R,6R)-6-((1R,2R)-3-(4-chlorobenzamido)-1,2-dihydroxypropyl)-4-hydroxy-5-(2-hydroxyacetamido)-2-(2-(2-(prop-2-yn-1-yloxy)ethoxy)ethoxy)tetrahydro-2H-pyran-2-carboxylic acid] | > 10 | 1000 to 10000 | 1000 to 10000
2 | C#CCCCCCCS[C@]1(C(=O)O)C[C@H](O)[C@@H](NC(=O)CO)[C@H]([C@H](O)[C@H](O)CNC(=O)Cc2ccc(-c3ccc(O)cc3)cc2)O1 [Compound 49, (2S,4S,5R,6R)-6-((1R,2R)-1,2-dihydroxy-3-(2-(4′-hydroxy-[1,1′-biphenyl]-4-yl)acetamido)propyl)-4-hydroxy-5-(2-hydroxyacetamido)-2-(oct-7-yn-1-ylthio)tetrahydro-2H-pyran-2-carboxylic acid] | < 1 | < 1000 | < 1000
3 | C#CCOCCOCCNc1c(NCCCCCCO[C@]2(C(=O)O)C[C@H](O)[C@@H](NC(=O)CO)[C@H]([C@H](O)[C@H](O)CNC(=O)c3ccc(F)cc3)O2)c(=O)c1=O [Compound 232, (2R,4S,5R,6R)-2-((6-((3,4-dioxo-2-((2-(2-(prop-2-yn-1-yloxy)ethoxy)ethyl)amino)cyclobut-1-en-1-yl)amino)hexyl)oxy)-6-((1R,2R)-3-(4-fluorobenzamido)-1,2-dihydroxypropyl)-4-hydroxy-5-(2-hydroxyacetamido)tetrahydro-2H-pyran-2-carboxylic acid] | > 10 | 1000 to 10000 | 1000 to 10000
4 | C#CCCCCCCS[C@]1(C(=O)O)C[C@H](O)[C@@H](NC(=O)CO)[C@H]([C@H](O)[C@H](O)CNC(=O)Cc2cccc(O)c2)O1 [Compound 141, (2S,4S,5R,6R)-6-((1R,2R)-1,2-dihydroxy-3-(2-(3-hydroxyphenyl)acetamido)propyl)-4-hydroxy-5-(2-hydroxyacetamido)-2-(oct-7-yn-1-ylthio)tetrahydro-2H-pyran-2-carboxylic acid] | < 1 | < 1000 | 1000 to 10000
5 | C#CCOCCOCCO[C@]1(C(=O)O)C[C@H](O)[C@@H](NC(=O)CO)[C@H]([C@H](O)[C@H](O)CNC(=O)c2ccc(O)cc2)O1 [Compound 198, (2R,4S,5R,6R)-6-((1R,2R)-1,2-dihydroxy-3-(4-hydroxybenzamido)propyl)-4-hydroxy-5-(2-hydroxyacetamido)-2-(2-(2-(prop-2-yn-1-yloxy)ethoxy)ethoxy)tetrahydro-2H-pyran-2-carboxylic acid] | > 10 | > 10000 | > 10000
6 | C#CCCOc1ccc(CO[C@]2(C(=O)O)C[C@H](O)[C@@H](NC(=O)CO)[C@H]([C@H](O)[C@H](O)CNC(=O)Cc3cccc(-c4ccc(O)cc4)c3)O2)cc1 [Compound 44, (2R,4S,5R,6R)-2-((4-(but-3-yn-1-yloxy)benzyl)oxy)-6-((1R,2R)-1,2-dihydroxy-3-(2-(4′-hydroxy-[1,1′-biphenyl]-3-yl)acetamido)propyl)-4-hydroxy-5-(2-hydroxyacetamido)tetrahydro-2H-pyran-2-carboxylic acid] | 1 to 10 | < 1000 | 1000 to 10000
7 | CC(=O)NCCOCCOCCOCCOCCNc1c(NCCOCCOCCO[C@]2(C(=O)O)C[C@H](O)[C@@H](NC(=O)CO)[C@H]([C@H](O)[C@H](O)CNC(=O)Cc3ccc(-c4ccccc4)cc3)O2)c(=O)c1=O [Cpd. 242, (2R,4S,5R,6R)-6-((1R,2R)-3-(2-([1,1′-biphenyl]-4-yl)acetamido)-1,2-dihydroxypropyl)-2-(2-(2-(2-((3,4-dioxo-2-((2-oxo-6,9,12,15-tetraoxa-3-azaheptadecan-17-yl)amino)cyclobut-1-en-1-yl)amino)ethoxy)ethoxy)ethoxy)-4-hydroxy-5-(2-hydroxyacetamido)tetrahydro-2H-pyran-2-carboxylic acid] | 1 to 10 | 1000 to 10000 | 1000 to 10000
8 | O=C(O)CCOCCOCCOCCOCCNc1c(NCCCCCCO[C@]2(C(=O)O)C[C@H](O)[C@@H](NC(=O)CO)[C@H]([C@H](O)[C@H](O)CNC(=O)Cc3ccc(Cl)cc3)O2)c(=O)c1=O [Compound 154, (2R,4S,5R,6R)-2-((6-((2-((14-carboxy-3,6,9,12-tetraoxa-tetradecyl)amino)-3,4-dioxocyclobut-1-en-1-yl)amino)hexyl)oxy)-6-((1R,2R)-3-(2-(4-chlorophenyl)acetamido)-1,2-dihydroxypropyl)-4-hydroxy-5-(2-hydroxyacetamido) tetrahydro-2H-pyran-2-carboxylic acid] | < 1 | < 1000 | < 1000
9 | C#CCCOc1ccc(CS[C@]2(C(=O)O)C[C@H](O)[C@@H](NC(=O)CO)[C@H]([C@H](O)[C@H](O)CNC(=O)Cc3ccc(O)cc3)O2)cc1 [Compound 148, (2S,4S,5R,6R)-2-((4-(but-3-yn-1-yloxy)benzyl)thio)-6-((1R,2R)-1,2-dihydroxy-3-(2-(4-hydroxyphenyl)acetamido)propyl)-4-hydroxy-5-(2-hydroxyacetamido)tetrahydro-2H-pyran-2-carboxylic acid] | < 1 | < 1000 | 1000 to 10000

More lines, now with the values ahead:

Row | Kd [1] [µM] | Kd [2] [nM] | Kd (cynomolgus Siglec-2/CD22) [nM] | SMILES
10 | 1 to 10 | < 1000 | < 1000 | C#CCOCCCCCCO[C@]1(C(=O)O)C[C@H](O)[C@@H](Nc2c(N)c(=O)c2=O)[C@H]([C@H](O)[C@H](O)CNC(=O)Cc2ccc(Cl)cc2)O1 [Compound 190, (2R,4S,5R,6R)-5-((2-amino-3,4-dioxocyclobut-1-en-1-yl)amino)-6-((1R,2R)-3-(2-(4-chlorophenyl)acetamido)-1,2-dihydroxypropyl)-4-hydroxy-2-((6-(prop-2-yn-1-yloxy)hexyl)oxy)tetrahydro-2H-pyran-2-carboxylic acid]
11 | > 10 | 1000 to 10000 | < 1000 | C#CCOCCCCCCO[C@]1(C(=O)O)C[C@H](O)[C@@H](NC(=O)Cc2nn[nH]n2)[C@H]([C@H](O)[C@H](O)CNC(=O)Cc2ccc(Cl)cc2)O1 [Compound 208, (2R,4S,5R,6R)-5-(2-(2H-tetrazol-5-yl)acetamido)-6-((1R,2R)-3-(2-(4-chlorophenyl)acetamido)-1,2-dihydroxypropyl)-4-hydroxy-2-((6-(prop-2-yn-1-yloxy)hexyl)oxy)tetrahydro-2H-pyran-2-carboxylic acid]
12 | > 10 | 1000 to 10000 | 1000 to 10000 | C#CCOCCCCCCO[C@]1(C(=O)O)C[C@H](O)[C@@H](NC(=O)COC)[C@H]([C@H](O)[C@H](O)CNC(=O)Cc2ccc(Cl)cc2)O1 [Compound 192, (2R,4S,5R,6R)-6-((1R,2R)-3-(2-(4-chlorophenyl)acetamido)-1,2-dihydroxypropyl)-4-hydroxy-5-(2-methoxyacetamido)-2-((6-(prop-2-yn-1-yloxy)hexyl)oxy)tetrahydro-2H-pyran-2-carboxylic acid]
13 | < 1 | < 1000 | < 1000 | C#CCCCCCCO[C@]1(C(=O)O)C[C@H](O)[C@@H](NC(=O)CO)[C@H]([C@H](O)[C@H](O)CNC(=O)Cc2ccc(Cl)cc2)O1 [Compound 110, (2R,4S,5R,6R)-6-((1R,2R)-3-(2-(4-chlorophenyl)acetamido)-1,2-dihydroxypropyl)-4-hydroxy-5-(2-hydroxyacetamido)-2-(oct-7-yn-1-yloxy)tetrahydro-2H-pyran-2-carboxylic acid]
